Assay results as given in patent US8324245B2, “Quinoline derivative and quinazoline derivative inhibiting self-phosphorylation of hepatocytus proliferator receptor, and medicinal composition containing the same” (Kyowa Hakko Kirin Co., Ltd., priority 2001, dated 2012).

Target: T1, met (HGF receptor) in human gastric cancer cells MKN45 (Homo sapiens, UniProt P08581)
T1 construct: endogenous in cells; host or cells: MKN45 human gastric cancer cells
Assay: Inhibitory activity against met-autophosphorylation using ELISA method (2), MKN45 cells, HGF-independent
Format: cell-based
Procedure, shortened: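 Met autophosphorylation was read by sandwich ELISA: phosphotyrosine capture (PY20), anti-HGF receptor detection, peroxidase read-out at 450 nm. Lysates came from MKN45 gastric cancer cells kept in 0.1% FCS RPMI and treated 1 h at 37 °C with test compound, with no added HGF.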

T1 sequence (P08581 25-1390): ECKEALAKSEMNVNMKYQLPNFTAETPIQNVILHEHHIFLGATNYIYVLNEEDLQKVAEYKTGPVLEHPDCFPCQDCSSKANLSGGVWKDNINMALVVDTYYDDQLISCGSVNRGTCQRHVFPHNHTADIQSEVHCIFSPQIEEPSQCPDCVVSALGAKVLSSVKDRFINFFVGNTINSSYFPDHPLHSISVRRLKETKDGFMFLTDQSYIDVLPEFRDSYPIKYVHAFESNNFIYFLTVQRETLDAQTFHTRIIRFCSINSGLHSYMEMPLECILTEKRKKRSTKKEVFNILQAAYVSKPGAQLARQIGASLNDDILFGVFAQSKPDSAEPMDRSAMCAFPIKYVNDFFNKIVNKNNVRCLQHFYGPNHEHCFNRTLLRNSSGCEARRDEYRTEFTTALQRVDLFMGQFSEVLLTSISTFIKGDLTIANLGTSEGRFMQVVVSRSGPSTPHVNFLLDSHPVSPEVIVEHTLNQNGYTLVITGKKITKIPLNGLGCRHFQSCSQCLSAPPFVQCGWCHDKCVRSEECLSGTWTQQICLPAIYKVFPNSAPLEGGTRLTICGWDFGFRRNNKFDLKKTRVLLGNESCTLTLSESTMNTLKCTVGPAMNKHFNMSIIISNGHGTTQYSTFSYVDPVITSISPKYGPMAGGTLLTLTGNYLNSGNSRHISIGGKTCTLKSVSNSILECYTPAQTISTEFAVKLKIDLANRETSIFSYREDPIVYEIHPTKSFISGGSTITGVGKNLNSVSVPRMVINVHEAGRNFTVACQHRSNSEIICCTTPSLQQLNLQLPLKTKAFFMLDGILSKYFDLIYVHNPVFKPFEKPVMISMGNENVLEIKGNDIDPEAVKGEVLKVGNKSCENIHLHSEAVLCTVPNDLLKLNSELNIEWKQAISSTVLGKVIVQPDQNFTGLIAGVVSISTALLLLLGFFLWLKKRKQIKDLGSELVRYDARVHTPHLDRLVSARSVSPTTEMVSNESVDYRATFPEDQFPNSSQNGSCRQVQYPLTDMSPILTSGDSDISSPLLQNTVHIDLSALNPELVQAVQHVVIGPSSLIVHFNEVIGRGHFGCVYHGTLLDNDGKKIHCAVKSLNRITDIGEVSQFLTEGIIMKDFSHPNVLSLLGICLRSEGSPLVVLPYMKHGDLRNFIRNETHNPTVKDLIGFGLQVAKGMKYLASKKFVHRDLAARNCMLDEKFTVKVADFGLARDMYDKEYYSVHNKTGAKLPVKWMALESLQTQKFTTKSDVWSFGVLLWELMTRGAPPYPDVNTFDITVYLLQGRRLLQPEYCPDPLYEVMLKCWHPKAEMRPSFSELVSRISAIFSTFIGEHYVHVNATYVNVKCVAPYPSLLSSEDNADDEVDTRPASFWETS

SMILES	IC50
COc1cc2nccc(Oc3ccc(NC(=O)NC(=O)Nc4ccccn4)cc3)c2cc1OC [Example 236, N-(2-pyridyl)-({[4-(6,7-dimethoxyquinolin-4-yloxy)anilino]carbonyl}amino)methanamide]	235 nM
COc1cc2nccc(Oc3ccc(NC(=O)NC(=O)Nc4ccnn4C)cc3)c2cc1OC [Example 237, N-(1-methyl-1H-5-pyrazolyl)-({[4-(6,7-dimethoxyquinolin-4-yloxy)anilino]carbonyl}amino)-methanamide]	1470 nM
COc1cc2nccc(Oc3ccc(NC(=O)NC(=O)Nc4ccc5c(c4)OCCO5)cc3)c2cc1OC [Example 238, N-(2,3-dihydro-1,4-benzodioxin-6-yl)-({[4-(6,7-dimethoxyquinolin-4-yloxy)anilino]carbonyl}amino)-methanamide]	4020 nM
COc1cc2nccc(Oc3ccc(NC(=O)NC(=O)Nc4ccccc4C(F)(F)F)cc3)c2cc1OC [Example 240, N-[2-(trifluoromethyl)phenyl]-({[4-(6,7-dimethoxyquinolin-4-yloxy)anilino]carbonyl}amino)methan-amide]	2740 nM
COc1cc2nccc(Oc3ccc(NC(=O)NC(=O)Nc4ccc(CC#N)cc4)cc3)c2cc1OC [Example 241, N-[4-(cyanomethyl)phenyl]-({[4-(6,7-dimethoxyquinolin-4-yloxy)anilino]carbonyl}amino)-methanamide]	3320 nM
COc1cc2nccc(Oc3ccc(NC(=O)NC(=O)Nc4ccc5c(c4)CCC5)cc3)c2cc1OC [Example 243, N-(2,3-dihydro-1H-5-indenyl)-({[4-(6,7-dimethoxyquinolin-4-yloxy)anilino]carbonyl}amino)-methanamide]	3010 nM
COC(=O)c1ccccc1NC(=O)NC(=O)Nc1ccc(Oc2ccnc3cc(OC)c(OC)cc23)cc1 [Example 245, methyl 2-({({[4-(6,7-dimethoxyquinolin-4-yloxy)anilino]carbonyl}amino)carbonyl}amino)benzoate]	308 nM
COc1cc2nccc(Oc3ccc(NC(=O)NC(=O)Nc4ccccc4Cc4ccccc4)cc3)c2cc1OC [Example 246, N-(2-benzylphenyl)-({[4-(6,7-dimethoxy-quinolin-4-yloxy)anilino]carbonyl}amino)methanamide]	2910 nM
COc1cc2nccc(Oc3ccc(NC(=O)NC(=O)Nc4ccccc4Cl)cc3)c2cc1OC [Example 248, N-(2-chlorophenyl)-({[4-(6,7-dimethoxy-quinolin-4-yloxy)anilino]carbonyl}amino)methanamide]	957 nM
COc1cc2nccc(Oc3ccc(NC(=O)NC(=O)Nc4ccc(F)cc4Cl)cc3)c2cc1OC [Example 250, N-(2-chloro-4-fluorophenyl)-({[4-(6,7-dimethoxyquinolin-4-yloxy)anilino]carbonyl}amino)-methanamide]	447 nM
COc1cc2nccc(Oc3ccc(NC(=O)NC(=O)Nc4ccccc4SC)cc3)c2cc1OC [Example 253, N-[2-(methylsulfanyl)phenyl]-({[4-(6,7-dimethoxyquinolin-4-yloxy)anilino]carbonyl}amino)-methanamide]	1340 nM
COc1cc2nccc(Oc3ccc(NC(=O)NC(=O)Nc4ccc([N+](=O)[O-])cc4)cc3)c2cc1OC [Example 254, N-(4-nitrophenyl)-({[4-(6,7-dimethoxy-quinolin-4-yloxy)anilino]carbonyl}amino)methanamide]	365 nM
COc1cc2nccc(Oc3ccc(NC(=O)NC(=O)Nc4ccccc4Oc4ccccc4)cc3)c2cc1OC [Example 255, N-(2-phenoxyphenyl)-({[4-(6,7-dimethoxy-quinolin-4-yloxy)anilino]carbonyl}amino)methanamide]	260 nM
COc1cc2nccc(Oc3ccc(NC(=O)NC(=O)Nc4ccccc4-n4cccc4)cc3)c2cc1OC [Example 259, N-[2-(1H-1-pyrrolyl)phenyl]-({[4-(6,7-dimethoxyquinolin-4-yloxy)anilino]carbonyl}amino)-methanamide]	614 nM
COc1cc2nccc(Oc3ccc(NC(=O)NC(=O)Nc4cccc5cccnc45)cc3)c2cc1OC [Example 260, N-(8-quinolyl)-({[4-(6,7-dimethoxyquinolin-4-yloxy)anilino]carbonyl}amino)methanamide]	2230 nM

Next, values leading:

IC50	SMILES
457 nM	COc1cc2nccc(Oc3ccc(NC(=O)NC(=O)Nc4cccc(C)n4)cc3)c2cc1OC [Example 234, N-(6-methyl-2-pyridyl)-({[4-(6,7-dimethoxy-quinolin-4-yloxy)anilino]carbonyl}amino)methanamide]
215 nM	COc1cc2nccc(Oc3ccc(NC(=O)NC(=O)Nc4ccc(C)cn4)cc3)c2cc1OC [Example 235, N-(5-methyl-2-pyridyl)-({[4-(6,7-dimethoxy-quinolin-4-yloxy)anilino]carbonyl}amino)methanamide]
1580 nM	COc1cc2nccc(Oc3ccc(NC(=O)NC(=O)Nc4cccc(C#N)c4)cc3)c2cc1OC [Example 239, N-(3-cyanophenyl)-({[4-(6,7-dimethoxy-quinolin-4-yloxy)anilino]carbonyl}amino)-methanamide]
851 nM	COc1cc2nccc(Oc3ccc(NC(=O)NC(=O)Nc4ccc(Cl)cc4C)cc3)c2cc1OC [Example 242, N-(4-chloro-2-methylphenyl)-({[4-(6,7-dimethoxyquinolin-4-yloxy)anilino]carbonyl}amino)-methanamide]
342 nM	COc1cccc(NC(=O)NC(=O)Nc2ccc(Oc3ccnc4cc(OC)c(OC)cc34)cc2)c1 [Example 244, N-(3-methoxyphenyl)-({[4-(6,7-dimethoxy-quinolin-4-yloxy)anilino]carbonyl}amino)methanamide]
650 nM	COc1cc2nccc(Oc3ccc(NC(=O)NC(=O)Nc4ccccc4Br)cc3)c2cc1OC [Example 247, N-(2-bromophenyl)-({[4-(6,7-dimethoxy-quinolin-4-yloxy)anilino]carbonyl}amino)methanamide]
526 nM	COc1cc2nccc(Oc3ccc(NC(=O)NC(=O)Nc4ccc(Cl)cc4)cc3)c2cc1OC [Example 249, N-(4-chlorophenyl)-({[4-(6,7-dimethoxy-quinolin-4-yloxy)anilino]carbonyl}amino)methanamide]
386 nM	COc1cc2nccc(Oc3ccc(NC(=O)NC(=O)Nc4cccc(F)c4)cc3)c2cc1OC [Example 251, N-(3-fluorophenyl)-({[4-(6,7-dimethoxy-quinolin-4-yloxy)anilino]carbonyl}amino)methanamide]
301 nM	COc1cc2nccc(Oc3ccc(NC(=O)NC(=O)Nc4ccccc4F)cc3)c2cc1OC [Example 252, N-(2-fluorophenyl)-({[4-(6,7-dimethoxy-quinolin-4-yloxy)anilino]carbonyl}amino)methanamide]
281 nM	COc1cc2nccc(Oc3ccc(NC(=O)NC(=O)Nc4cccc(C)c4)cc3)c2cc1OC [Example 256, N-(3-methylphenyl)-({[4-(6,7-dimethoxy-quinolin-4-yloxy)anilino]carbonyl}amino)methanamide]
286 nM	COc1cc2nccc(Oc3ccc(NC(=O)NC(=O)Nc4ccc(C)cc4)cc3)c2cc1OC [Example 257, N-(4-methylphenyl)-({[4-(6,7-dimethoxy-quinolin-4-yloxy)anilino]carbonyl}amino)methanamide]
357 nM	COc1cc2nccc(Oc3ccc(NC(=O)NC(=O)Nc4c(C)cccc4C)cc3)c2cc1OC [Example 258, N-(2,6-dimethylphenyl)-({[4-(6,7-dimethoxy-quinolin-4-yloxy)anilino]carbonyl}amino)methanamide]
